Reference: BindingDB's records for patent US11547697 (Millennium Pharmaceuticals, 2023)

Experiments:
Assay in all cases: Inhibition Assay of PI3K
[1] = molecular target: Phosphatidylinositol 4,5-bisphosphate 3-kinase catalytic subunit gamma isoform (Homo sapiens, UniProt P48736)
[2] = molecular target: T1, Phosphatidylinositol 4,5-bisphosphate 3-kinase catalytic subunit delta isoform (Homo sapiens, UniProt O00329)
T1 sequence (O00329 whole entry): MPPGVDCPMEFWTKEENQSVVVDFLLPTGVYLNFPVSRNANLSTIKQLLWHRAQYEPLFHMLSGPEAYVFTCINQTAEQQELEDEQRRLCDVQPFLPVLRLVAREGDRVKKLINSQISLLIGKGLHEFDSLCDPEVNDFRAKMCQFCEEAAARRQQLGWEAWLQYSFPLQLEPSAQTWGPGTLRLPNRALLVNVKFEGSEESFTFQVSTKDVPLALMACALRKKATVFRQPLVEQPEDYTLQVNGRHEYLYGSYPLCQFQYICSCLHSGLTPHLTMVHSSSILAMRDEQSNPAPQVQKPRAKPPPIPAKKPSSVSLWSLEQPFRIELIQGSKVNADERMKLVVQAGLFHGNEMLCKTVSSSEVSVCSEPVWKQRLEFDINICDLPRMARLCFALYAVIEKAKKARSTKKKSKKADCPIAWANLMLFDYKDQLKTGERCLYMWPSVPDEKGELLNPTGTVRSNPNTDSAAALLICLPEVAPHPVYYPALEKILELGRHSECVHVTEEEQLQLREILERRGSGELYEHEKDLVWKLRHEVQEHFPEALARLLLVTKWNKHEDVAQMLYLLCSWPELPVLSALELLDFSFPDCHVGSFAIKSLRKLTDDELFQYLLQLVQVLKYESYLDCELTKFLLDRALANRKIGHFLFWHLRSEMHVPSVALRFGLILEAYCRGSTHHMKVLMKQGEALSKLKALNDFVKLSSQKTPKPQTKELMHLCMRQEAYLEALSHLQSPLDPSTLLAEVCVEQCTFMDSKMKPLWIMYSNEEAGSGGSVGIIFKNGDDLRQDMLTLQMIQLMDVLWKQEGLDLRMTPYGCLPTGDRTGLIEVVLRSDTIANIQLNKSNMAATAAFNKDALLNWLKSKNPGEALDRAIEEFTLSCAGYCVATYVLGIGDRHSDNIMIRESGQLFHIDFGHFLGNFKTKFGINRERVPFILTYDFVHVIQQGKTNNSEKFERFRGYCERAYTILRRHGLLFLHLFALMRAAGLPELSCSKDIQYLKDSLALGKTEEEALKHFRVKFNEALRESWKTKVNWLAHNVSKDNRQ

[3] = molecular target: Phosphatidylinositol 4,5-bisphosphate 3-kinase catalytic subunit beta isoform (Homo sapiens, UniProt P42338)
Phosphatidylinositol 4,5-bisphosphate 3-kinase catalytic subunit beta isoform, sequence (P42338 whole entry, canonical isoform): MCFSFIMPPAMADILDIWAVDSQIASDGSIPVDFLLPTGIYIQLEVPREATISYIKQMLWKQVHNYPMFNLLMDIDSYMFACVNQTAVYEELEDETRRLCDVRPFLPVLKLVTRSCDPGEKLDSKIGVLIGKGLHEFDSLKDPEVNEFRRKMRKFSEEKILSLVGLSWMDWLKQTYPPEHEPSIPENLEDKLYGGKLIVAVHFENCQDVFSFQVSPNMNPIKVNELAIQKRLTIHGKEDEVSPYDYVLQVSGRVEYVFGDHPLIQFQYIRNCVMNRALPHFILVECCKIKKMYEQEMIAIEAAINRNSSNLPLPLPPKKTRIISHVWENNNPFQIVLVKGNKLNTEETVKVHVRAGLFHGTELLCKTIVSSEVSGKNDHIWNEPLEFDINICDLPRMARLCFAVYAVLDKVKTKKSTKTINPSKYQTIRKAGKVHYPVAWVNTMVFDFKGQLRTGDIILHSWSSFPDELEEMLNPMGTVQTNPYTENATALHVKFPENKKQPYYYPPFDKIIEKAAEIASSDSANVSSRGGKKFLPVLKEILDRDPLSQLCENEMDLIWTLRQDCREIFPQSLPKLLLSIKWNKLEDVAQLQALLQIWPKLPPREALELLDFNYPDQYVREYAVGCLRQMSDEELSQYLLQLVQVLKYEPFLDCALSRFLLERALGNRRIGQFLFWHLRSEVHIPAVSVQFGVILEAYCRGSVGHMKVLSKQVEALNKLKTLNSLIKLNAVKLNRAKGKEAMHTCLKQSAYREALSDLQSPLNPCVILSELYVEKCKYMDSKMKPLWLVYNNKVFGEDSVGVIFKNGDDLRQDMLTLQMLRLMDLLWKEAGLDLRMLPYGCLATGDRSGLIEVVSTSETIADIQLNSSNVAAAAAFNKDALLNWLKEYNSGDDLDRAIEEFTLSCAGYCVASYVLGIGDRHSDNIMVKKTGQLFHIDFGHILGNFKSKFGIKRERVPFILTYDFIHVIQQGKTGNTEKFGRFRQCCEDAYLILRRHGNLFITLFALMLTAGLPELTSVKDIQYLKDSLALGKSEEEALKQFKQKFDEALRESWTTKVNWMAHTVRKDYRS

Phosphatidylinositol 4,5-bisphosphate 3-kinase catalytic subunit gamma isoform, sequence (P48736 whole entry, canonical isoform): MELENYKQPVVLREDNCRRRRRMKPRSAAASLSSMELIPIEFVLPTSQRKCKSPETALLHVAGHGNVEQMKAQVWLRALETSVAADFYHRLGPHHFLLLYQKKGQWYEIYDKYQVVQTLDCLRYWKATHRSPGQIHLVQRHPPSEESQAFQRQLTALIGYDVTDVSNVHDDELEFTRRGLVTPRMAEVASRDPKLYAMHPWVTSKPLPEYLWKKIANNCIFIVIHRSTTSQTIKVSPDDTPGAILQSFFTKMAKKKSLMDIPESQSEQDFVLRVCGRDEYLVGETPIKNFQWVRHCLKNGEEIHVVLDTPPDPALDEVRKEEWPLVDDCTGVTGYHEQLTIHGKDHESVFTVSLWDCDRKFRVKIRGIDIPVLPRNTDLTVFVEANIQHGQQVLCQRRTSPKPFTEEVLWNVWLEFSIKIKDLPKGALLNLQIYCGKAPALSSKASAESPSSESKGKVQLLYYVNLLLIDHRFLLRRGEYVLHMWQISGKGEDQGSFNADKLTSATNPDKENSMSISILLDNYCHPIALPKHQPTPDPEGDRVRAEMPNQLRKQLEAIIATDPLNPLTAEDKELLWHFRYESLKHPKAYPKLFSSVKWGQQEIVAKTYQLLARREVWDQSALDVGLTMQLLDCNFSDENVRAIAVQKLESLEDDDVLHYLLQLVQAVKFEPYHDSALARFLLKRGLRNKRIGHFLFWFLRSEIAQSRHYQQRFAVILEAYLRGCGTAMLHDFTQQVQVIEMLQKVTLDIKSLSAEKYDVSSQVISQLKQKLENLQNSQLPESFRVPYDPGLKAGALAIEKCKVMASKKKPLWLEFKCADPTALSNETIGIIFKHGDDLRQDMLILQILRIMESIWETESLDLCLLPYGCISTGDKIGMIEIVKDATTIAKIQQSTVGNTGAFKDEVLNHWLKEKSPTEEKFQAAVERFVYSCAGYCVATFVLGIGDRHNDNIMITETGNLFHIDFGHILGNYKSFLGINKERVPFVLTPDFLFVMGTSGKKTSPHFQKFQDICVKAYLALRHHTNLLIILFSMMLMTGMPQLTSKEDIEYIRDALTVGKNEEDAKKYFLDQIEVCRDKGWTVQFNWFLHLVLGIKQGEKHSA

| Compound | IC50 [1] [µM] | IC50 [2] [µM] | IC50 [3] [µM] |
| --- | --- | --- | --- |
| CN1CCC(N(C)C(=O)c2cnc3ccc(-c4ccc5oc(N)nc5c4)cn23)CC1 [US11547697, Compound 165] | > 10 | – | – |
| C[C@H]1CN(C2CN(c3cnc4ccc(-c5ccc6oc(N)nc6c5)cc4n3)C2)CCN1 [US11547697, Compound 350] | > 10 | – | – |
| CNC(=O)CN1CCN(c2cnc3ccc(-c4ccc5oc(N)nc5c4)cc3n2)CC1 [US11547697, Compound 120] | > 10 | – | – |
| Nc1nc2cc(-c3ccc4ncn(C5CCOCC5)c(=O)c4c3)ccc2o1 [US11547697, Compound 55] | > 10 | > 10 | – |
| Cc1c(-c2ccc3oc(N)nc3c2)ccc2ncc(N3CCN[C@@H](C)C3)nc12 [US11547697, Compound 374] | > 10 | – | – |
| C[C@H]1CN(c2cnc3ccc(-c4ccc5sc(N)nc5c4)cc3n2)CCN1 [US11547697, Compound 307] | > 10 | > 10 | – |
| Nc1nc2cc(-c3ccc4ncc(N5CC(N6CCN(CC7CC7)CC6)C5)nc4c3)ccc2o1 [US11547697, Compound 335] | > 10 | – | – |
| CN1CCC(n2cnc3ccc(-c4ccc5oc(N)nc5c4)cc3c2=O)CC1 [US11547697, Compound 36] | > 10 | – | – |
| CN1CCN([C@@H]2CCN(c3cnc4ccc(-c5ccc6oc(N)nc6c5)cc4n3)C2)CC1 [US11547697, Compound 379] | > 10 | – | – |
| CC1(C)CN(c2cnc3ccc(-c4ccc5oc(N)nc5c4)cc3n2)CCN1 [US11547697, Compound 336] | > 10 | – | – |
| Nc1nc2cc(-c3ccc4ncc(N5CCC(N)CC5)nc4c3)ccc2o1 [US11547697, Compound 168] | > 10 | – | – |
| Nc1nc2cc(-c3ccc4ncc(N5CC(N6CCOCC6)C5)nc4c3)ccc2o1 [US11547697, Compound 273] | – | > 10 | > 10 |
| Nc1nc2cc(-c3ccc4ncn(CCCN5CCCC5)c(=O)c4c3)ccc2o1 [US11547697, Compound 271] | > 10 | – | – |
| CN1CCC(n2cnc3ccc(-c4cnc(Cl)c(NS(C)(=O)=O)c4)cc3c2=O)CC1 [US11547697, Compound 526] | > 10 | – | – |
| Nc1nc2cc(-c3ccc4ncc(C(=O)NC5CCC(O)CC5)n4c3)ccc2o1 (stereo not given) [US11547697, Compound 143] | < 0.1 | – | – |
| CC(=O)Nc1nc2ccc(-c3ccc4nccc(-c5ccncc5)c4c3)cc2s1 [US11547697, Compound 2] | – | > 10 | > 10 |
| CC(C)(N)C(=O)N1CCN(c2cnc3ccc(-c4ccc5oc(N)nc5c4)cc3n2)CC1 [US11547697, Compound 213] | > 10 | – | – |
| Nc1nc2cc(-c3ccc4ncc(N5CCCCC5)nc4c3)ccc2o1 [US11547697, Compound 175] | – | > 10 | > 10 |

Other lines, results leading:

| IC50 [1] [µM] | IC50 [2] [µM] | IC50 [3] [µM] | Compound |
| --- | --- | --- | --- |
| > 10 | – | – | Nc1nc2cc(-c3ccc4ncc(C(=O)NCCN5CCCC5)n4c3)ccc2o1 [US11547697, Compound 296] |
| – | > 10 | > 10 | Nc1nc2cc(-c3ccc4ncc(C(=O)N5CCC(F)(F)C5)n4c3)ccc2o1 [US11547697, Compound 471] |
| – | > 10 | > 10 | Nc1nc2cc(-c3ccc4ncc(C(=O)N5CCC(O)CC5)n4c3)ccc2o1 [US11547697, Compound 162] |
| – | > 10 | > 10 | NC(=O)[C@@H]1CCCN1C(=O)c1cnc2ccc(-c3ccc4oc(N)nc4c3)cn12 [US11547697, Compound 259] |
| – | > 10 | > 10 | CC1(C)CN(C(=O)c2cnc3ccc(-c4ccc5oc(N)nc5c4)cn23)CCO1 [US11547697, Compound 513] |
| – | > 10 | > 10 | C[C@@H]1CN(C(=O)c2cnc3ccc(-c4ccc5oc(N)nc5c4)cn23)C[C@H](C)O1 [US11547697, Compound 106] |
| – | > 10 | > 10 | Nc1nc2cc(-c3ccc4ncc(C(=O)N5CC[C@H](F)C5)n4c3)ccc2o1 [US11547697, Compound 476] |
| – | > 10 | > 10 | Nc1nc2cc(-c3ccc4ncc(C(=O)N5CCN(CCO)CC5)n4c3)ccc2o1 [US11547697, Compound 148] |
| – | > 10 | > 10 | Nc1nc2cc(-c3ccc4ncc(C(=O)N5CC(F)(F)C5)n4c3)ccc2o1 [US11547697, Compound 473] |
